# Test results published in patent US6989371B1, “Bombesin analogs for treatment of cancer” (Dabur Research Foundation, priority 1996, dated 2006).
# Non-standard residues stand in square brackets, D forms with d. Residues, ends and D or L forms follow the SMILES beside them. Deg = CCC(N)(CC)C(=O)O
# Columns and labels:
# Test in all cases: MTT cytotoxicity assay, 48 hours (Example 14)
# PTC (colon) = assay type: cell-based, human
# Protocol: (§1) The cytotoxic effect of peptide sequences SEQ ID NO: 9, SEQ ID NO: 10, SEQ ID NO: 11 and SEQ ID NO: 12, were studied by MTT assay which is based on the principle of uptake of MTT[3-[4,5-dimethylthiazol-2-yl]-2,5-diphenyl tetrazolium bromide], a tetrazolium salt by the metabolically active cells where it is metabolized by active mitochondria into a blue colored formazan product which can be read spectrophotometrically. Tumor cells KB (oral squamous). HuTu80 (Stomach), PTC and SW620 (colon), U87MG (Glioblastoma), HBL 100. (Breast), HeP2 (laryngeal) and L132 (Lung) were incubated with the peptide analogs for 48 hours at 37° C. in a 96-well culture plate, followed by the addition of 100 μl MTT and further incubation of 1 hour. The formazon crystals formed inside the cells were dissolved with a detergent comprising 10% Sodium dodecyl sulfate and 0.01 N HCl and optical density read on a multiscan ELISA reader. The optical density was directly proportional to the number of proliferating and metabolically active cells.
# HBL 100 (Breast) = assay type: cell-based, human
# Protocol: as §1
# KB (oral squamous) = assay type: cell-based, human
# Protocol: as §1
# HuTu80 (Stomach) = assay type: cell-based, human
# Protocol: as §1
# SW620 (colon) = assay type: cell-based, human
# Protocol: as §1
# U87MG (Glioblastoma) = assay type: cell-based
# Protocol: as §1
# L132 (Lung) = assay type: cell-based
# Protocol: as §1
# HeP2 (laryngeal) = assay type: cell-based
# Protocol: as §1
structure (smiles),measurement,setting,value
"CCC(CC)(NC(=O)[C@H](Cc1c[nH]c2ccccc12)NC(=O)[C@H](CCC(N)=O)NC(=O)[C@H](N)Cc1ccccc1)C(=O)N[C@H](C(=O)NCC(=O)N[C@@H](Cc1c[nH]cn1)C(=O)N[C@@H](CC(C)C)C(N)=O)C(C)C [SEQ ID: 9, D-Phe-Gln-Trp-Deg-Val-Gly-His-Leu-NH2] (H-[dF]QW[Deg]VGHL-NH2; N-terminus assumed)",Percentage cytotoxicity,PTC (colon); 10 pM,22.4 ± 2.2%
same,Percentage cytotoxicity,PTC (colon); 100 pM,24.5 ± 3.9%
same,Percentage cytotoxicity,PTC (colon); 1 nM,25.6 ± 5.1%
same,Percentage cytotoxicity,PTC (colon); 10 nM,26.8 ± 3.8%
same,Percentage cytotoxicity,PTC (colon); 100 nM,19.5 ± 4.1%
same,Percentage cytotoxicity,PTC (colon); 1 μM,10.3 ± 0.9%
same,Percentage cytotoxicity,"HBL 100 (Breast); HBL100, 10 pM",17.2 ± 0.1%
same,Percentage cytotoxicity,"HBL 100 (Breast); HBL100, 100 pM",28.6 ± 2.2%
same,Percentage cytotoxicity,"HBL 100 (Breast); HBL100, 1 nM",34.1 ± 1.8%
same,Percentage cytotoxicity,"HBL 100 (Breast); HBL100, 10 nM",28.1 ± 0.6%
same,Percentage cytotoxicity,"HBL 100 (Breast); HBL100, 100 nM",22.4 ± 1.7%
same,Percentage cytotoxicity,"HBL 100 (Breast); HBL100, 1 μM",17.2 ± 0.4%
same,Percentage cytotoxicity,KB (oral squamous); 10 pM,20.6 ± 4.1%
same,Percentage cytotoxicity,KB (oral squamous); 100 pM,26.9 ± 2.9%
same,Percentage cytotoxicity,KB (oral squamous); 1 nM,32.6 ± 3.7%
same,Percentage cytotoxicity,KB (oral squamous); 10 nM,23.0 ± 2.1%
same,Percentage cytotoxicity,KB (oral squamous); 100 nM,20.8 ± 1.7%
same,Percentage cytotoxicity,KB (oral squamous); 1 μM,10.4 ± 1.6%
same,Percentage cytotoxicity,"HuTu80 (Stomach); HuTu80, 10 pM",19.5 ± 0.4%
same,Percentage cytotoxicity,"HuTu80 (Stomach); HuTu80, 100 pM",23.8 ± 2.8%
same,Percentage cytotoxicity,"HuTu80 (Stomach); HuTu80, 1 nM",28.0 ± 1.8%
same,Percentage cytotoxicity,"HuTu80 (Stomach); HuTu80, 10 nM",23.5 ± 2.9%
same,Percentage cytotoxicity,"HuTu80 (Stomach); HuTu80, 100 nM",13.5 ± 2.1%
same,Percentage cytotoxicity,"HuTu80 (Stomach); HuTu80, 1 μM",14.2 ± 0.6%
same,Percentage cytotoxicity,"SW620 (colon); SW620, 10 pM",15.1 ± 0.3%
same,Percentage cytotoxicity,"SW620 (colon); SW620, 100 pM",28.9 ± 0.2%
same,Percentage cytotoxicity,"SW620 (colon); SW620, 1 nM",30.8 ± 0.6%
same,Percentage cytotoxicity,"SW620 (colon); SW620, 10 nM",33.2 ± 2.9%
same,Percentage cytotoxicity,"SW620 (colon); SW620, 100 nM",25.8 ± 2.8%
same,Percentage cytotoxicity,"SW620 (colon); SW620, 1 μM",21.6 ± 2.1%
same,Percentage cytotoxicity,U87MG (Glioblastoma); 10 pM,0.0 ± 0.0%
same,Percentage cytotoxicity,U87MG (Glioblastoma); 100 pM,11.9 ± 4.1%
same,Percentage cytotoxicity,U87MG (Glioblastoma); 1 nM,21.8 ± 0.1%
same,Percentage cytotoxicity,U87MG (Glioblastoma); 10 nM,20.0 ± 0.0%
same,Percentage cytotoxicity,U87MG (Glioblastoma); 100 nM,21.4 ± 0.1%
same,Percentage cytotoxicity,U87MG (Glioblastoma); 1 μM,10.0 ± 0.0%
same,Percentage cytotoxicity,"L132 (Lung); L132, 10 pM",0.0 ± 0.0%
same,Percentage cytotoxicity,"L132 (Lung); L132, 100 pM",22.4 ± 0.8%
same,Percentage cytotoxicity,"L132 (Lung); L132, 1 nM",30.5 ± 4.1%
same,Percentage cytotoxicity,"L132 (Lung); L132, 10 nM",27.2 ± 3.1%
same,Percentage cytotoxicity,"L132 (Lung); L132, 100 nM",25.9 ± 2.6%
same,Percentage cytotoxicity,"L132 (Lung); L132, 1 μM",18.3 ± 2.9%
same,Percentage cytotoxicity,"HeP2 (laryngeal); HeP2, 10 pM",0.0 ± 0.0%
same,Percentage cytotoxicity,"HeP2 (laryngeal); HeP2, 100 pM",14.6 ± 0.6%
same,Percentage cytotoxicity,"HeP2 (laryngeal); HeP2, 1 nM",21.3 ± 2.2%
same,Percentage cytotoxicity,"HeP2 (laryngeal); HeP2, 10 nM",28.5 ± 3.1%
same,Percentage cytotoxicity,"HeP2 (laryngeal); HeP2, 100 nM",17.8 ± 0.3%
same,Percentage cytotoxicity,"HeP2 (laryngeal); HeP2, 1 μM",21.6 ± 1.8%
